The structures appear in SMILES notation. Converted amounts (≈) assume the structure as drawn.

Common to all, as to assay type: functional
In experiment [1] the test system is Candida albicans. In words: Minimum inhibitory concentration required for antifungal activity against Candida albicans ATCC 10321.
The test system of experiment [2] is Aspergillus niger. In words: Minimum inhibitory concentration required for antifungal activity against Aspergillus niger ATCC 16404.
For experiment [3], the system named is Escherichia coli. The experiment can be described thus: Minimum inhibitory concentration required for antibacterial activity against Escherichia coli ATCC 13607; gram negative.
In experiment [4] the test system is Staphylococcus aureus. In words: Minimum inhibitory concentration required for antibacterial activity against Staphylococcus aureus ATCC 2943; gram positive.
The nature of experiment [5]: Minimum inhibitory concentration required for antibacterial activity against Pseudomonas diminuta MTCC 3361; gram negative. As to conditions: Brevundimonas diminuta.
Experiment [6] concerns Bacillus subtilis. The experiment can be described thus: Minimum inhibitory concentration required for antibacterial activity against Bacillus subtilis ATCC 6633; gram positive.

For `O=C1Nc2[nH]c(=S)n(-c3ccc([N+](=O)[O-])cc3)c(=O)c2C(c2ccccc2Cl)N1/N=N/c1ccc(Cl)cc1` (configuration not stated), the MIC was 15 µg/mL (≈ 26.4 µM) in experiment [1]; 19 µg/mL (≈ 33.4 µM) in experiment [2]; 7 µg/mL (≈ 12.3 µM) in experiment [3]; 4 µg/mL (≈ 7.04 µM) in experiment [4]; 9 µg/mL (≈ 15.8 µM) in experiment [5]; 6 µg/mL (≈ 10.6 µM) in experiment [6].

For the compound `Clc1ccccc1C(c1ccccc1)(c1ccccc1)n1ccnc1` [CLOTRIMAZOLE], the MIC was 25 µg/mL (≈ 72.5 µM) in experiment [1] and 20 µg/mL (≈ 58 µM) in experiment [2].

Consider `O=C1Nc2[nH]c(=S)n(-c3ccc(O)cc3)c(=O)c2C(c2ccccc2Cl)N1/N=N/c1ccc(Cl)cc1` (configuration not stated), for which the MIC stood at 23 µg/mL (≈ 42.6 µM) in experiment [1]; 27 µg/mL (≈ 50.1 µM) in experiment [2]; 12 µg/mL (≈ 22.2 µM) in experiment [3]; 8 µg/mL (≈ 14.8 µM) in experiment [4]; 15 µg/mL (≈ 27.8 µM) in experiment [5]; 10 µg/mL (≈ 18.5 µM) in experiment [6].

`O=C1Nc2[nH]c(=S)n(-c3ccc(Cl)cc3)c(=O)c2C(c2ccccc2Cl)N1/N=N/c1ccc(Cl)cc1` (configuration not stated): the MIC was 24 µg/mL (≈ 43 µM) in experiment [1]; 29 µg/mL (≈ 52 µM) in experiment [2]; 13 µg/mL (≈ 23.3 µM) in experiment [3]; 9 µg/mL (≈ 16.1 µM) in experiment [4]; 14 µg/mL (≈ 25.1 µM) in experiment [5]; 12 µg/mL (≈ 21.5 µM) in experiment [6].

For the compound `CC1(C)S[C@@H]2[C@H](NC(=O)[C@H](N)c3ccccc3)C(=O)N2[C@H]1C(=O)O` [AMPICILLIN], the minimal inhibitory concentration (MIC) in experiment [3] was 49 µg/mL (≈ 140 µM); in experiment [4], 50 µg/mL (≈ 143 µM); in experiment [5], 15 µg/mL (≈ 42.9 µM); in experiment [6], 10 µg/mL (≈ 28.6 µM).

Take `O=C1Nc2[nH]c(=S)n(-c3cccc(O)c3)c(=O)c2C(c2ccccc2Cl)N1/N=N/c1ccc(Cl)cc1` (configuration not stated): the minimal inhibitory concentration (MIC) in experiment [1] was found to be 20 µg/mL (≈ 37.1 µM); in experiment [2] it was 24 µg/mL (≈ 44.5 µM); in experiment [3], 10 µg/mL (≈ 18.5 µM); in experiment [4], 6 µg/mL (≈ 11.1 µM); in experiment [5], 13 µg/mL (≈ 24.1 µM); in experiment [6], 8 µg/mL (≈ 14.8 µM).

Consider `O=C1Nc2[nH]c(=S)n(-c3cccc([N+](=O)[O-])c3)c(=O)c2C(c2ccccc2Cl)N1/N=N/c1ccc(Cl)cc1` (configuration not stated), for which the MIC in experiment [1] came to 13 µg/mL (≈ 22.9 µM); in experiment [2], 16 µg/mL (≈ 28.1 µM); in experiment [3] it was 6 µg/mL (≈ 10.6 µM); in experiment [4], 3 µg/mL (≈ 5.28 µM); in experiment [5] it was 8 µg/mL (≈ 14.1 µM); in experiment [6], 5 µg/mL (≈ 8.8 µM).

Take `O=C1Nc2[nH]c(=S)n(-c3cccc(Cl)c3)c(=O)c2C(c2ccccc2Cl)N1/N=N/c1ccc(Cl)cc1` (configuration not stated): the MIC in experiment [1] amounted to 11 µg/mL (≈ 19.7 µM); in experiment [2], 14 µg/mL (≈ 25.1 µM); in experiment [3] it was 4 µg/mL (≈ 7.17 µM); in experiment [4], 2 µg/mL (≈ 3.59 µM); in experiment [5], 5 µg/mL (≈ 8.96 µM); in experiment [6], 4 µg/mL (≈ 7.17 µM).

Turning to `COc1ccc(-n2c(=S)[nH]c3c(c2=O)C(c2ccccc2Cl)N(/N=N/c2ccc(Cl)cc2)C(=O)N3)cc1` (configuration not stated), the MIC in experiment [1] turned out to be 29 µg/mL (≈ 52.4 µM); in experiment [2], 33 µg/mL (≈ 59.6 µM); in experiment [3], 17 µg/mL (≈ 30.7 µM); in experiment [4], 11 µg/mL (≈ 19.9 µM); in experiment [5] it was 21 µg/mL (≈ 37.9 µM); in experiment [6], 16 µg/mL (≈ 28.9 µM).

Turning to `O=C(O)c1ccc(-n2c(=S)[nH]c3c(c2=O)C(c2ccccc2Cl)N(/N=N/c2ccc(Cl)cc2)C(=O)N3)cc1` (configuration not stated), the minimum inhibitory concentration (MIC) in experiment [1] was determined as 17 µg/mL (≈ 30 µM); in experiment [2], 22 µg/mL (≈ 38.8 µM); in experiment [3], 8 µg/mL (≈ 14.1 µM); in experiment [4], 5 µg/mL (≈ 8.81 µM); in experiment [5] it was 11 µg/mL (≈ 19.4 µM); in experiment [6] it was 7 µg/mL (≈ 12.3 µM).

Consider `O=C1Nc2[nH]c(=S)n(-c3ccccc3)c(=O)c2C(c2ccccc2Cl)N1/N=N/c1ccc(Cl)cc1` (configuration not stated), for which the MIC in experiment [1] was determined as 52 µg/mL (≈ 99.3 µM); in experiment [2], 57 µg/mL (≈ 109 µM); in experiment [3] it was 40 µg/mL (≈ 76.4 µM); in experiment [4], 32 µg/mL (≈ 61.1 µM); in experiment [5], 46 µg/mL (≈ 87.9 µM); in experiment [6], 37 µg/mL (≈ 70.7 µM).

Take `Cc1ccc(-n2c(=S)[nH]c3c(c2=O)C(c2ccccc2Cl)N(/N=N/c2ccc(Cl)cc2)C(=O)N3)cc1` (configuration not stated): the MIC in experiment [1] was found to be 39 µg/mL (≈ 72.6 µM); in experiment [2], 42 µg/mL (≈ 78.1 µM); in experiment [3], 26 µg/mL (≈ 48.4 µM); in experiment [4] it was 21 µg/mL (≈ 39.1 µM); in experiment [5], 31 µg/mL (≈ 57.7 µM); in experiment [6], 22 µg/mL (≈ 40.9 µM).

Regarding `Cc1cccc(-n2c(=S)[nH]c3c(c2=O)C(c2ccccc2Cl)N(/N=N/c2ccc(Cl)cc2)C(=O)N3)c1` (configuration not stated), the MIC was determined as 35 µg/mL (≈ 65.1 µM) in experiment [1]; 39 µg/mL (≈ 72.6 µM) in experiment [2]; 22 µg/mL (≈ 40.9 µM) in experiment [3]; 18 µg/mL (≈ 33.5 µM) in experiment [4]; 25 µg/mL (≈ 46.5 µM) in experiment [5]; 21 µg/mL (≈ 39.1 µM) in experiment [6].

Broadly, the MIC is the least concentration at which growth counts as inhibited. A low value points to a more susceptible organism.

The values above are taken from ChEMBL document CHEMBL1138820, “Synthesis and QSAR studies of pyrimido[4,5-d]pyrimidine-2,5-dione derivatives as potential antimicrobial agents” (2004).
